{
  "source": "patent US20200131227A1",
  "about": "“POLYPEPTIDE WITH TUMOUR BINDING ACTIVITY” (RUPRECHT-KARLS-UNIVERSITÄT HEIDELBERG, priority 2017, published 2020)",
  "key": {"[1]": {"test_system": "HNSCC tumor sections (HNO97 xenograft, HNO444, HNO399, HNO210)", "experiment": "Histochemical peptide staining of HNSCC tumor cryosections", "design": "species or system human", "conditions": "biotinylated PEG(12)-peptide, 10^-5 M", "experimental": "Staining with the biotinylated PEG(12)-SFITGv6 peptide was performed on acetone-fixed cryosections (5 μm) of tumor tissues after blocking of unspecific binding using the Avidin/Biotin Blocking Kit (SP-2001, Vector Laboratories). A stock solution of the lyophilized peptide was prepared by dilution in 5% aqueous DMSO. Slices were incubated overnight at 4° C. with 10^-5 M peptide concentration in antibody diluent (DAKO). Detection of bound peptide was carried out with the Vectastain Elite ABC Kit (PK-6100, Vector Laboratories) according to manufacturer's protocol. Peptide specificity was ensured by a scrambled (GRD) PEG(12)-SFITGv6 derivate, the somatostatin receptor ligand DOTATOC and negative controls (without peptide or primary antibody) Staining results were assessed by bright field microscopy (BX50) with the SC30 camera and the cell Sense software (all Olympus).\nImmunohistochemical stainings were performed by use of the biotinylated PEG(12)-labled peptides (SFITGv6, SFLAP3) on 5 μm acetone-fixed tumor tissue cryosections. To prevent background staining we initially applied the Avidin/Biotin Blocking Kit (SP-2001, Vector Laboratories). The lyophilized peptides were diluted in 5% aqueous DMSO preparing a 1 mM Stock solution. The HNSCC cryosections were incubated with 10^−5 M peptide concentration in antibody diluent (DAKO) at 4° C. overnight. To detect bound peptide the Vectastain Elite ABC Kit (PK-6100, Vector Laboratories) was applied according to manufacturer's protocol. Peptide binding specificity was ensured by use of a peptide derivate (scrambled control) and negative controls (without peptide). Due to instability of the peptide binding staining results were assessed on the same day by bright field microscopy (BX50) with the SC30 camera and the cell Sense software (all Olympus)."}, "HNO97 cells [2]": {"test_system": "HNO97 cells", "assay_type": "binding, human", "conditions": "48 h", "experimental": "(§1) For binding studies, 2.5×10^5 to 4×10^5 cells were seeded in 6-well plates and cultivated for 48 hours. Cells were incubated for 60 min with 1 mL serum-free medium containing the ^125I-labeled peptide (see above). For competition experiments, cells were simultaneously exposed to unlabeled (10^-4 M to 10^-10 M) and ^125I-labeled peptides. After three washing steps with PBS (pH 7.4) the cells were lysed with 0.5 mL of 0.3 M NaOH. Experiments concerning the internalization, kinetics and efflux were additionally performed with ^177Lu-DOTA-SFITGv6. To evaluate kinetics and efflux HNO97 cells were incubated for different time intervals (10 min to 480 min) and 60 min, respectively, with ^177Lu-DOTA-SFITGv6 and lysed as described. To continue with the efflux experiment radioactive medium was replaced by non-radioactive medium and cells were incubated again for 60 to 240 min before measuring radioactivity of the cell lysates and the medium. For internalization experiments the cells were exposed to ^177Lu-DOTA-SFITGv6 for different time intervals (10 to 240 min) at 37° C. and 4° C. After three washing steps with PBS the cells were incubated with 1 mL of glycine-HCl 50 mmol/L in PBS (pH 2.8) for 10 min at RT to remove the surface bound activity. Then, cells were washed with 3 mL of ice-cold PBS and lysed as described. Radioactivity was determined in a gamma counter and calculated as percentage of the applied dose per 1×10^6 cells. Experiments were performed three times, and three repetitions per independent experiment were acquired."}, "Capan-2 cells": {"test_system": "Capan-2 cells", "experiment": "In vitro binding, internalization and efflux on Capan-2 cells", "assay_type": "cell-based, human", "experimental": "For in vitro binding Studies, 4*10^5-6*10^5 cells were seeded in 6 well plates and cultivated for 24 to 48 hours. At the start of the experiment the medium was replaced with 1 ml serum free medium with a definite amount of radioactive labeled peptide per well. For normal binding assays the cells were incubated for 60 min at 37° C. and afterwards washed 3 times with PBS (pH 7.4). Cells were lysed with 2 times 0.5 ml of a 0.3 M NaOH +0.2% SDS lysis-buffer. Competition assays were performed with ^125I-labeled and unlabelled (10^−6 to 10^−11M) peptide and incubated at the same time for 60 min.\nCells were incubated for 10 to 240 min with ^177Lu-labelled peptide in internalization assays. After the washing steps, the cells were incubated with 1 ml glycine-HCl (1 M, pH 2.2) buffer for 10 min to remove surface bound peptide. Prior to the lyses the cells were washed again. Values are given as percentage of applied dose per 10^6 cells.\nThe efflux was tested with ^177Lu-labeled peptides. After 60 min incubation the radioactive medium was removed and 1 ml fresh serum-free medium was added. After additional incubation of 60, 120 or 240 min, cell bound activity was measured."}, "carcinoma cell lines": {"test_system": "carcinoma cell lines", "experiment": "In vitro binding of radiolabeled peptides to several carcinoma cell lines", "assay_type": "cell-based, human", "conditions": "HNO97, HNO399, HNO223, HNO210, HNO199; 60 min", "experimental": "as §1\n(§2) For the assessment of the peptide binding capacity in vitro, 2.5-4×10^5 cells were seeded into 6-well plates and cultivated for 48 h. ^125I-labeled peptide resuspended in 1 mL serum-free medium was added and incubated for either 10 min or 60 min with or without different concentrations of unlabeled peptide (10^−4-10^−11 M). Afterwards, cell monolayers were washed three times with 1 mL phosphate-buffered saline (pH 7.4) to remove unbound peptide and the cells were harvested with 1.4 mL lysis buffer (0.3 M NaOH). To evaluate kinetic properties the cells were exposed to ^177Lu-DOTA-labeled peptides for 10, 30, 60, 120, and 240 min, respectively, and lysed as described. For the efflux experiments the cells were incubated with ^177Lu-DOTA-labeled peptides for 60 min. Thereafter, radioactive medium was replaced by non-radioactive medium and cell monolayers were incubated for additional 60, 120, and 240 min and afterwards lysed as described earlier. The internalization was assessed after exposure of the cells to ^177Lu-DOTA-labeled peptides for 10, 30, 60, 120, and 240 min at 37° C. Unspecifically bound peptide was removed from the surface by incubation with 1 M glycine-HCl solution (pH 2.2) for 10 min. The monolayer cell was rinsed with PBS and cells were lysed as described before. Radioactivity was determined in a y-counter and calculated as percentage of the applied dose per 1×10^6 cells. Experiments were performed three times, and three repetitions per independent experiment were acquired."}, "HNO97 cells [3]": {"test_system": "HNO97 cells", "experiment": "In vitro binding, kinetics, internalization and efflux on HNO97 cells", "assay_type": "cell-based, human", "conditions": "continuously increasing, within 480 min", "experimental": "as §1, §2"}, "[4]": {"molecular_target": "T1, integrin αvβ6 (ITGαvβ6) as expressed on human carcinoma cell lines and tumor tissue sections (human, UniProt P06756 31-1048; P18564 22-788)", "T1 construct": "whole, on cells; also called ITGAVB6; ITGαvβ6-expressing HNO97 cells", "T1 sequence (P06756 31-1048, chain 1 of 2)": "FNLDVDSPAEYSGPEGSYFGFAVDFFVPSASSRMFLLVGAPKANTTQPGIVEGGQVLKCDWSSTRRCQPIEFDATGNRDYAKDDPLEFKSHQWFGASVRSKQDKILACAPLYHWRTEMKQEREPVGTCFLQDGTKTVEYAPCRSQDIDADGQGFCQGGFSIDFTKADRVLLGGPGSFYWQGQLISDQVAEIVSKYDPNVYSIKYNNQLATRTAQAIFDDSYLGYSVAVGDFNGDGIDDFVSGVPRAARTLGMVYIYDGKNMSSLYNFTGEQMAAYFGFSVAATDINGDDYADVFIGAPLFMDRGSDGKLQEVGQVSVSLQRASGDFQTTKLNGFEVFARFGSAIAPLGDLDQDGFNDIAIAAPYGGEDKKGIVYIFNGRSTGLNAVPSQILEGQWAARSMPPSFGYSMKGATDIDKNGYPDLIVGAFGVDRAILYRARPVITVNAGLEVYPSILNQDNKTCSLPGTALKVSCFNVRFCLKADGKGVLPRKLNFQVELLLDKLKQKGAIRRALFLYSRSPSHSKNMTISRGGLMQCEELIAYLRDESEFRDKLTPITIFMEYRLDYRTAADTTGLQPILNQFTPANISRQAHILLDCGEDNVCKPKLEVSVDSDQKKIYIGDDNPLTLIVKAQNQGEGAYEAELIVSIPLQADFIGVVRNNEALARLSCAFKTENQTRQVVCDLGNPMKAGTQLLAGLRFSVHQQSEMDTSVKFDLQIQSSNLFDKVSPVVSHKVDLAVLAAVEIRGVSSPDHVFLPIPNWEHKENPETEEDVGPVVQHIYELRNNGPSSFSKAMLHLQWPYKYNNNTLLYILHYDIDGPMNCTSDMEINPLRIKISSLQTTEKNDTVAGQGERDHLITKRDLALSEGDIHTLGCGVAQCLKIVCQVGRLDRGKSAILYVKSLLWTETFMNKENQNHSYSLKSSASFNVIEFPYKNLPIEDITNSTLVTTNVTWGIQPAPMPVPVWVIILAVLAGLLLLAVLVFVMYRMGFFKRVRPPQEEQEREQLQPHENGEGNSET", "T1 sequence (P18564 22-788, chain 2 of 2)": "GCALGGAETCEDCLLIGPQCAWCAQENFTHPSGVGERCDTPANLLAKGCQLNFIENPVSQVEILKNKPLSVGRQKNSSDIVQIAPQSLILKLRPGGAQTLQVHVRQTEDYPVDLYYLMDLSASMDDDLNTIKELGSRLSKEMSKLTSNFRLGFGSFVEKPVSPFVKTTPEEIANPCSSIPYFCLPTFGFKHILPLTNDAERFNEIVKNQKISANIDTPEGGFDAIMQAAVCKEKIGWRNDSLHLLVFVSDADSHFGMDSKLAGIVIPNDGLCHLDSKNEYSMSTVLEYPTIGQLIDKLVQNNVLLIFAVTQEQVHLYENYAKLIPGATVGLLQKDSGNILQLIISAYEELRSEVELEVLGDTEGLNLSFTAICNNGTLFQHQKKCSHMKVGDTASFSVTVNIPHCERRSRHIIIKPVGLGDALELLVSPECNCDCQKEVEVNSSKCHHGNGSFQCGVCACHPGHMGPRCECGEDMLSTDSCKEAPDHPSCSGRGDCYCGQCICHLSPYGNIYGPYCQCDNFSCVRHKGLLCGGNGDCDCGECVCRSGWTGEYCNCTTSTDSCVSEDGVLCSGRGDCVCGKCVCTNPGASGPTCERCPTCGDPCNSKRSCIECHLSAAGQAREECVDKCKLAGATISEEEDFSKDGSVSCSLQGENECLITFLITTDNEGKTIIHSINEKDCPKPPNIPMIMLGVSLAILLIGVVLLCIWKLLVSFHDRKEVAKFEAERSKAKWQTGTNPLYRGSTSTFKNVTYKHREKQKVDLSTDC", "experiment": "unlabelled peptide competing with the 125I-labelled peptide on Capan-2 cells, 60 min"}},
  "note": "Where a SMILES comes first, the peptide text is derived from it. Bridges are numbered along the chain shown (N, C = ends). Roman numbers before positions name the chains, in order. Where no end group is shown, it is not given here. The star is where a group is joined. DOTA = O=C(O)CN1CCN(CC(=O)O)CCN(CC(=O)*)CCN(CC(=O)O)CC1",
  "data": [
    {"molecule": "C[C@@H](O)[C@@H]1NC(=O)[C@H](CCCCN)NC(=O)[C@@H](Cc2c[nH]c3ccccc23)NC(=O)[C@H](Cc2ccc(O)cc2)NC(=O)[C@@H](NC(=O)[C@@H](Cc2ccccc2)NC(=O)CN2CCN(CC(=O)O)CCN(CC(=O)O)CCN(CC(=O)O)CC2)CSSC[C@@H](C(=O)N[C@H](CO)[C@@H](C)O)NC1=O", "note": "[DOTATOC, DOTA(0)-Phe(1)-Tyr(3))octreotid, reference compound]", "values": [
      {"measurement": "histochemical peptide staining result", "setting": "[1]", "value": "could not observe any specific binding"}
    ]},
    {"molecule": "CC(C)C[C@H](NC(=O)[C@H](CC(=O)O)NC(=O)CNC(=O)[C@H](CCCNC(=N)N)NC(=O)[C@@H]1CCCN1C(=O)[C@@H](N)CO)C(=O)N[C@@H](C)C(=O)N[C@H](C(=O)N[C@@H](CC(C)C)C(=O)NCC(=O)N[C@@H](Cc1c[nH]cn1)C(=O)N[C@@H](CCCCN)C(=O)N[C@@H](Cc1ccc(O)cc1)C(N)=O)C(C)C", "note": "[HBP-1, reference compound] (H-SPRGDLAVLGHKY-NH2; N-terminus and C-terminus assumed)", "values": [
      {"measurement": "IC50", "setting": "HNO97 cells [2]", "value": 45.1, "unit": "nM"}
    ]},
    {"molecule": "CSCC[C@@H]1NC(=O)[C@H](CCCCN)NC(=O)[C@H](CC(=O)O)NC(=O)CNC(=O)[C@H](CCCNC(=N)N)NC(=O)[C@H](Cc2ccccc2)NC(=O)[C@H]([C@@H](C)O)NC(=O)[C@@H](NC(=O)[C@H](CCCNC(=N)N)NC(=O)CN)CSSC[C@@H](C(=O)N[C@@H](Cc2ccc(O)cc2)C(=O)N2CCC[C@H]2C(=O)N[C@@H](CC(=O)O)C(=O)O)NC(=O)[C@H](CC(C)C)NC(=O)[C@H](CCC(N)=O)NC1=O", "note": "[SFPF-10] (H-GRCTFRGDKMQLCYPD-OH; disulfide 3-13; N-terminus and C-terminus assumed)", "values": [
      {"measurement": "IC50", "setting": "HNO97 cells [2]", "value": 18, "unit": "nM"}
    ]},
    {"molecule": "H2N-G-R-C1-T-G-R-G-D-L-G-R-L-K-C2-Y-P-D-COOH (H-GRCTGRGDLGRLKCYPD-OH; disulfide 3-14; SMILES CC(C)C[C@@H]1NC(=O)[C@H](CC(=O)O)NC(=O)CNC(=O)[C@H](CCCNC(=N)N)NC(=O)CNC(=O)[C@H]([C@@H](C)O)NC(=O)[C@@H](NC(=O)[C@H](CCCNC(=N)N)NC(=O)CN)CSSC[C@@H](C(=O)N[C@@H](Cc2ccc(O)cc2)C(=O)N2CCC[C@H]2C(=O)N[C@@H](CC(=O)O)C(=O)O)NC(=O)[C@H](CCCCN)NC(=O)[C@H](CC(C)C)NC(=O)[C@H](CCCNC(=N)N)NC(=O)CNC1=O) [SFLAP3K]", "values": [
      {"measurement": "cellular uptake of ^125I-labeled variant compared with SFLAP3", "setting": "Capan-2 cells; different pancreatic carcinoma cell lines (FIG. 25D)", "value": "increased cellular uptake"}
    ]},
    {"molecule": "SFLAP1: SFTI derivate with grafted LAP1 octamer RRGDLAFI (GRCTRRGDLAFICYPD; disulfide 3-13 (inferred); also: 125I on the tyrosine in labelled form)", "values": [
      {"measurement": "binding capacity of ^125I-labeled peptide across HNSCC cell lines", "setting": "carcinoma cell lines", "value": "4.1-12.1%"}
    ]},
    {"molecule": "^177Lu-DOTA-SFLAP3K: ^177Lu-DOTA-labeled SFLAP3K ({DOTA}-GRCTGRGDLGRLKCYPD; disulfide 3-14; also: DOTA loaded with 177Lu)", "values": [
      {"measurement": "cellular uptake of ^177Lu-DOTA-labeled peptide compared with ^177Lu-DOTA-SFLAP3", "setting": "Capan-2 cells; 10 and 60 min", "value": "did not result in an increased cellular uptake"},
      {"measurement": "efflux (released into the culture medium)", "setting": "Capan-2 cells; during 4 hours following 60 min exposure", "value": 50, "unit": "%"}
    ]},
    {"molecule": "^177Lu-DOTA-SFPF10: ^177Lu-DOTA-labeled SFPF-10 ({DOTA}-GRCTFRGDKMQLCYPD; disulfide 3-13 (inferred); also: DOTA loaded with 177Lu)", "values": [
      {"measurement": "binding of ^177Lu-DOTA-labeled peptide (kinetics)", "setting": "HNO97 cells [3]", "value": "up to 23%"}
    ]},
    {"molecule": "biotinylated PEG(12)-SFITGv6: biotinylated PEG(12)-SFITGv6 peptide for histochemical staining (GRCTFRGDLMQLCYPD; disulfide 3-13; also: biotinylated PEG(12) label, site not given here)", "values": [
      {"measurement": "histochemical peptide staining result", "setting": "[1]; listed as biotin-labeled SFITGv6", "value": "strong and homogenous tumor cell-specific binding"},
      {"measurement": "histochemical peptide staining result", "setting": "[1]; listed as biotinylated SFITGv6", "value": "specific, strong and homogeneous binding"}
    ]},
    {"molecule": "^177Lu-DOTA-SFLAP3-trimer (Formula (XXVII)) (disulfide II:3-II:13; also: 177Lu chelated by DOTA, three SFLAP3 units attached by oxime ligation, aminooxy-modified, sites not given here, only one SFLAP3 unit listed as chain, Branched trimer; the exact connectivity stands only in the drawing of formula (XXVII), which is not readable here; also called trimerized peptide) {DOTA}-GSGSKGSGSKGSGSK peptide: GRCTGRGDLGRLCYPD", "values": [
      {"measurement": "IC50", "setting": "[4]", "value": 0.76, "unit": "nM"}
    ]},
    {"molecule": "{DOTA}-GRCTGRGDLGRLKCYPD (disulfide 3-14; also: DOTA loaded with 177Lu (or peptide 125I-labelled in competition assay), DOTA conjugate of SFLAP3K)", "note": "[^177Lu-DOTA-SFLAP3K]", "values": [
      {"measurement": "IC50", "setting": "[4]", "value": 2.1, "unit": "nM"}
    ]},
    {"molecule": "{DOTA}-GRCTGRGDLGRLCYPD (disulfide 3-13; also: DOTA loaded with 177Lu (or peptide 125I-labelled in competition assay), DOTA conjugate of SFLAP3)", "note": "[^177Lu-DOTA-SFLAP3]", "values": [
      {"measurement": "IC50", "setting": "[4]", "value": 6.2, "unit": "nM"}
    ]}
  ]
}
